In patent US20200009173A1, “TRIAZOLE-CONTAINING MACROLIDES AND OPHTHALMIC USES THEREFOR” (Tetard, Inc., priority 2017, published 2020):
≈ marks a conversion by molar mass, not a printed value. Like-named read-outs stand apart in the source and are kept apart here.

Experiments:
Haemophilus influenzae = assay: MIC, Haemophilus influenzae (100 strains); assay type: cell-based
Chlamydophila pneumoniae = assay: MIC, Chlamydophila pneumoniae (10 strains); assay type: cell-based
MSRA = assay: MICs of solithromycin and comparator drugs, MSRA (30 species); assay type: cell-based
Source text: (§1) EXAMPLE. The formulations described herein show overall higher potency against ocular pathogens than commercial standards.
(§2) MICs (μg/ml) of Solithromycin and Comparator Drugs against Bacterial Species

S. epidermidis = assay: MICs of solithromycin and comparator drugs, S. epidermidis (30 species); assay type: cell-based
Source text: as §1, §2

Corynebacterium spp. = assay: MIC, Corynebacterium spp.; assay type: cell-based; settings: N = 10
Staphylococcus aureus = assay: MIC, Staphylococcus aureus; assay type: cell-based; settings: N = 201
CA-MRSA = assay: MIC, CA-MRSA; assay type: cell-based, Staphylococcus aureus; settings: N = 30
Chlamydia trachomatis = assay: MIC, Chlamydia trachomatis; assay type: cell-based; settings: N = 10
[1] = tested on: Haemophilus parainfluenzae; assay: MIC, Haemophilus parainfluenzae; assay type: cell-based; settings: N = 11
Listeria monocytogenes = assay: MIC, Listeria monocytogenes; assay type: cell-based; settings: N = 10
Ureaplasma urealyticum = assay: MIC, Ureaplasma urealyticum; assay type: cell-based; settings: N = 10
[2] = tested on: Streptococcus pyogenes (a); assay: MIC, Streptococcus pyogenes (a); assay type: cell-based; settings: N = 407
[3] = tested on: Streptococci (Groups C, F, G); assay: MIC, Streptococci (Groups C, F, G); assay type: cell-based; settings: N = 185
pathogenic bacteria = assay type: cell-based
[4] = tested on: phagocytized L. pneumophila; assay type: cell-based
[5] = MIC in the presence of serum; assay type: cell-based; settings: 10% serum
[6] = Protein binding in plasma; assay type: in vitro ADME
TNFα = TNFα production in LPS-stimulated PMA-differentiated U937 cells (ELISA); assay type: cell-based, human
Experimental: (§3) EXAMPLE. […] Cells. The human monocytic cell line U937 was obtained from the American Type Culture Collection (ATCC, Rockville, Md.). PBMCs from COPD patients were obtained from Brompton hospital and separated by AccuSPIN (Sigma-Aldrich). […] U937 cells were differentiated into adherent macrophage-like morphology by exposure to PMA (50 ng/ml) for 48 h in complete growth medium. Cell viability was assessed microscopically by trypan blue staining. Cell toxicity was determined by MTT assay as needed. This study was approved by the ethics committee of the Royal Brompton Hospitals, and all subjects gave written informed consent. Cytokine ELISA. TNFα and IL-8 concentrations in the supernatant of cell cultures were determined by sandwich ELISA according to the manufacturer's instructions (R&D Systems Europe, Abingdon, UK). Statistical analysis. The results were expressed as the mean±SEM. Comparisons of data in two groups were performed using the Student's t test or the Wilcoxon signed rank test. Multiple comparisons were made by one-way ANOVA with post hoc test (Dunnett's) as appropriate. The difference was considered significant at p<0.05. […] Anti-inflammatory effects of solithromycin in U937 cells.

CXCL8 = CXCL8 (IL-8) production in LPS-stimulated PMA-differentiated U937 cells (ELISA); assay type: cell-based, human
Experimental: as §3

MMP9 = MMP9 activity in PMA-stimulated U937 cells (gelatin zymography); assay type: cell-based, human; settings: Homo sapiens, U-937
Experimental: EXAMPLE. […] Cells. The human monocytic cell line U937 was obtained from the American Type Culture Collection (ATCC, Rockville, Md.). PBMCs from COPD patients were obtained from Brompton hospital and separated by AccuSPIN (Sigma-Aldrich). […] U937 cells were differentiated into adherent macrophage-like morphology by exposure to PMA (50 ng/ml) for 48 h in complete growth medium. Cell viability was assessed microscopically by trypan blue staining. Cell toxicity was determined by MTT assay as needed. This study was approved by the ethics committee of the Royal Brompton Hospitals, and all subjects gave written informed consent. Zymography. MMP9 enzyme activity was measured by gelatin zymography. […] After electrophoresis, gels were incubated and rinsed with Novex® zymogram renaturing buffer (Invitrogen) for 30 min at room temperature. The gels were then rinsed in Novex® zymogram developing buffer (Invitrogen) for 30 min at room temperature prior to overnight incubation in the developing buffer at 37° C. After incubation, the gels were stained using a Colloidal Blue Staining Kit (Invitrogen) to visualize the zymogen bands. Statistical analysis. The results were expressed as the mean±SEM. Comparisons of data in two groups were performed using the Student's t test or the Wilcoxon signed rank test. Multiple comparisons were made by one-way ANOVA with post hoc test (Dunnett's) as appropriate. The difference was considered significant at p<0.05.

CC[C@H]1OC(=O)[C@@](C)(F)C(=O)[C@H](C)[C@@H](O[C@@H]2O[C@H](C)C[C@H](N(C)C)[C@H]2O)[C@](C)(OC)C[C@@H](C)C(=O)[C@H](C)[C@H]2N(CCCCn3cc(-c4cccc(N)c4)nn3)C(=O)O[C@]12C [CEM-101, solithromycin]
MIC90 (Haemophilus influenzae; Haemophilus influenzae, 100 strains, read-out: MIC90): 2 mg/L (≈ 2.37 µM) | MIC50 (Haemophilus influenzae; Haemophilus influenzae, N = 100): 1 mg/L (≈ 1.18 µM) | MIC90 (Haemophilus influenzae; N = 100): 2 mg/L (≈ 2.37 µM) | MIC Range (Haemophilus influenzae; N = 100): 0.12 to 4 mg/L | MIC90 (Chlamydophila pneumoniae; Chlamydia pneumoniae, 10 strains, read-out: MIC90): 0.25 mg/L (≈ 0.296 µM) | MIC50 (Chlamydophila pneumoniae; Chlamydia pneumoniae, N = 10): 0.25 mg/L (≈ 0.296 µM) | MIC90 (Chlamydophila pneumoniae; N = 10): 0.25 mg/L (≈ 0.296 µM) | MIC Range (Chlamydophila pneumoniae; N = 10): 0.25 to 1 mg/L | MIC50 (MSRA): 0.03 mg/L (≈ 0.0355 µM) | MIC90 (MSRA): 64 mg/L (≈ 75.7 µM) | I (intermediate susceptibility) (MSRA; 30 species): 0% | NS (not susceptible) (MSRA; 30 species): 30% | S (susceptible) (MSRA; 30 species): 70% | I (intermediate susceptibility) (S. epidermidis): 3% | NS (not susceptible) (S. epidermidis): 17% | S (susceptible) (S. epidermidis): 80% | MIC50 (S. epidermidis; Staphylococcus epidermidis): 0.015 mg/L (≈ 0.0178 µM) | MIC90 (S. epidermidis; Staphylococcus epidermidis): 32 mg/L (≈ 37.9 µM) | MIC50 (Corynebacterium spp.; Corynebacterium): 0.015 mg/L (≈ 0.0178 µM) | MIC90 (Corynebacterium spp.; Corynebacterium): 0.5 mg/L (≈ 0.592 µM) | MIC Range (Corynebacterium spp.): ≤0.008-16 ^ μg/mL | MIC50 (Staphylococcus aureus): 0.12 mg/L (≈ 0.142 µM) | MIC90 (Staphylococcus aureus): > 16 mg/L | MIC Range (CA-MRSA): 0.06 to 0.12 mg/L | MIC50 (CA-MRSA; Staphylococcus aureus, MRSA): 0.12 mg/L (≈ 0.142 µM) | MIC90 (CA-MRSA; Staphylococcus aureus, MRSA): 0.12 mg/L (≈ 0.142 µM) | MIC50 (Chlamydia trachomatis; Chlamydia trachomatis): 0.25 mg/L (≈ 0.296 µM) | MIC90 (Chlamydia trachomatis; Chlamydia trachomatis): 0.25 mg/L (≈ 0.296 µM) | MIC Range (Chlamydia trachomatis): 0.125 to 0.5 mg/L | MIC50 ([1]; Haemophilus parainfluenzae): 2 mg/L (≈ 2.37 µM) | MIC90 ([1]; Haemophilus parainfluenzae): 2 mg/L (≈ 2.37 µM) | MIC Range [1]: 1 to 2 mg/L | MIC50 (Listeria monocytogenes; Listeria monocytogenes): 0.03 mg/L (≈ 0.0355 µM) | MIC90 (Listeria monocytogenes; Listeria monocytogenes): 0.03 mg/L (≈ 0.0355 µM) | MIC Range (Listeria monocytogenes): 0.03 mg/L (≈ 0.0355 µM) | MIC Range (Ureaplasma urealyticum): 0.004 to 0.063 mg/L | MIC50 (Ureaplasma urealyticum; Ureaplasma urealyticum): 0.008 mg/L (≈ 0.00947 µM) | MIC90 (Ureaplasma urealyticum; Ureaplasma urealyticum): 0.031 mg/L (≈ 0.0367 µM) | MIC Range [2]: ≤0.03-0.5 ^ μg/mL | MIC50 ([2]; Streptococcus pyogenes): ≤ 0.03 mg/L | MIC90 ([2]; Streptococcus pyogenes): ≤ 0.03 mg/L | MIC50 [3]: ≤ 0.03 mg/L | MIC90 [3]: ≤ 0.03 mg/L | MIC Range [3]: ≤0.03-0.25^ μg/mL | activity against AZI resistant strains (pathogenic bacteria): active against all AZI resistant strains tested | activity at acidic pH relative to AZI (pathogenic bacteria; acidic pH, including in L. monocytogenes and S. aureus): 100-200 fold | activity relative to conventional macrolides (pathogenic bacteria; greater activity than conventional macrolides): 10 fold | intracellular activity relative to AZI (pathogenic bacteria; intracellular): 10 fold | activity against phagocytized L. monocytogenes and L. pneumophila relative to conventional macrolides (pathogenic bacteria; phagocytized bacteria): 50-100 fold | potency relative to azithromycin [4]: 100 fold | change in MIC in the presence of serum [5]: 2 fold | fraction unbound [6]: 0.14 | IC50 (TNFα; Homo sapiens, U-937, LPS, PMA-differentiated U937 cells, read-out: IC50 on TNFα release): 41.6 ± 1.9 µM | effect on TNFα production (TNFα; at 100 μM): significantly inhibited | IC50 (CXCL8; Homo sapiens, U-937, LPS, PMA-differentiated U937 cells, read-out: IC50 on CXCL8 release): 78.2 ± 9.5 µM | effect on CXCL8 production (CXCL8; at 100 μM): significantly inhibited | IC50 (MMP9): 14.9 ± 3.1 µM
